Molecules are shown by their SMILES.

This test deals with T1, NmGNAT (Nakamurella multipartita, UniProt C8XEF8).
T1 sequence (C8XEF8 1-164): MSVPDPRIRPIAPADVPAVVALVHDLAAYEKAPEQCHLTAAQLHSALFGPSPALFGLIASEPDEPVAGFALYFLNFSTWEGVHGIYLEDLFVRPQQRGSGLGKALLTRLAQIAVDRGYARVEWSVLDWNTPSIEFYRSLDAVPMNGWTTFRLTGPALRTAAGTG
Description: microscale thermophoresis. In kind it is binding.

Consider `NCCCC[C@H](N)C(=O)O` [lysine], for which the Kd turned out to be 137 ± 4.2 µM.
The compound `CC(=O)SCCNC(=O)CCNC(=O)[C@H](O)C(C)(C)COP(=O)(O)OP(=O)(O)OC[C@H]1O[C@@H](n2cnc3c(N)ncnc32)[C@H](O)[C@@H]1OP(=O)(O)O` [acetyl-CoA] showed a Kd of 18.9 ± 3.2 µM.

The values are drawn from paper doi:10.1101/2025.10.29.685286v1 (biorxiv, 2025).
